Patent US20090137664A1, “SAURURUS CERNUUS COMPOUNDS THAT INHIBIT CELLULAR RESPONSES TO HYPOXIA” (priority 2003, published 2009)

How the values were obtained:
HIF-1 = test: pTK-HRE3-luc reporter assay, hypoxia-induced HIF-1 activation in T47D cells; conditions: Homo sapiens, T47D, read-out: IC50, inhibition of hypoxic activation of HIF-1
A498 = test: NCI in vitro cell line screen (SRB), Renal Cancer A498; type: cell-based
Method: (§1) For exemplary purposes, an embodiment of the present invention was tested for activity with respect to certain cancer cell lines. The following Tables show results from in vitro 60-cell line antitumor testing from the US National Cancer Institute Developmental Therapeutics Program (NCI-DTP) on compound 2. The testing was in connection with the NCI's In Vitro Cell Line Screening Project (IVCLSP). Detailed information regarding the experiments and their interpretation is available from the NCI.

NCI/ADR-RES = test: NCI in vitro cell line screen (SRB), Breast Cancer NCI/ADR-RES; type: cell-based
Method: as §1
Antitumor agents with tumor-specific selectivity are highly desired, in order to reduce the incidence of non-selective cytotoxicity to patients. […] This is of special importance since this NCI/ADR-RES cell line is resistant to many currently used antitumor agents such as adriamycin, taxol, and others.

MOLT-4 = test: NCI in vitro cell line screen (SRB), Leukemia MOLT-4; type: cell-based
Method: as §1

TK-10 = test: NCI in vitro cell line screen (SRB), Renal Cancer TK-10; type: cell-based
Method: as §1

MDA-MB-231/ATCC = test: NCI in vitro cell line screen (SRB), Breast Cancer MDA-MB-231/ATCC; type: cell-based
Method: as §1

SK-MEL-2 = test: NCI in vitro cell line screen (SRB), Melanoma SK-MEL-2; type: cell-based
Method: as §1

HIF-1β protein = test: Western blot, HIF-1β protein in T47D nuclear extract; type: cell-based, human
Method: Due to the low abundance of HIF-1α protein in whole cell extract, nuclear extract is prepared and the level of HIF-1α protein in the nuclear extract determined by Western blot. Briefly, exponentially grown T47D cells are exposed to compound 2 for 30 minutes. […] Nuclear extracts are prepared from control and treated cells, separated on a SDS/PAGE gel, the separated proteins transferred to a nitrocellulose membrane, incubated with the primary antibodies (anti-HIF-1α, and anti-HIF-1β monoclonal antibodies, Novus Biologicals), secondary antibody biotinylated anti-mouse immunoglobulin G and Vectastain ABC reagent (Vector Laboratories), and developed using ECL reagents (Amersham Biosciences). […] No change in HIF-1β protein level is observed across the treatments. It is reasonable to conclude that the selectivity of compound 2 towards hypoxia-activated HIF-1 is caused by selective blockade of the hypoxic induction of HIF-1 protein.

pGL3 Control = test: luciferase expression from control plasmid pGL3 Control; type: cell-based, human
Method: The chemical structures of active compounds 1 and 2 are shown above. Compound 2 is the known compound manassantin B and 1 is a novel compound of the present invention. […] Similar results are obtained from separate experiments. The IC50 is 3 nM for 2 and 30 nM for 1. Complete inhibition is observed at 10 nM for 2 and 100 nM for 1.

KM12 = test: NCI in vitro cell line screen (SRB), Colon Cancer KM12; type: cell-based
Method: as §1

BT-549 = test: NCI in vitro cell line screen (SRB), Breast Cancer BT-549; type: cell-based
Method: as §1

[1] = Homo sapiens, read-out: LC50 (the source's name)
[2] = NCI/ADR-RES, Log10 Concentration −4.0 Molar
[3] = NCI/ADR-RES, Log10 Concentration −5.0 Molar
[4] = NCI/ADR-RES, Log10 Concentration −6.0 Molar
[5] = NCI/ADR-RES, Log10 Concentration −7.0 Molar
[6] = NCI/ADR-RES, Log10 Concentration −8.0 Molar

## COc1ccc([C@@H](O)[C@@H](C)Oc2ccc([C@H]3O[C@H](c4ccc(O[C@H](C)[C@H](O)c5ccc6c(c5)OCO6)c(OC)c4)[C@H](C)[C@H]3C)cc2OC)cc1OC [Compound 2, manassantin B]
HIF-1
  IC50: 0.003 µM
A498
  TGI: >1.00E−4 Molar
A498; Homo sapiens
  GI50: 13.2 µM
A498; [1]
  CC50: > 100 µM
A498; Log10 Concentration −4.0 Molar
  Mean Optical Densities: 1.223
  Percent Growth: 14%
A498; Log10 Concentration −5.0 Molar
  Mean Optical Densities: 1.343
  Percent Growth: 55%
A498; Log10 Concentration −6.0 Molar
  Mean Optical Densities: 1.419
  Percent Growth: 80%
A498; Log10 Concentration −7.0 Molar
  Mean Optical Densities: 1.433
  Percent Growth: 85%
A498; Log10 Concentration −8.0 Molar
  Mean Optical Densities: 1.414
  Percent Growth: 79%
NCI/ADR-RES
  inhibition of the NCI/ADR-RES breast tumor cell line: potently inhibits
NCI/ADR-RES; Homo sapiens, NCI/ADR-RES
  GI50: 0.107 µM
NCI/ADR-RES; Homo sapiens, NCI/ADR-RES, read-out: LC50 (the source's name)
  CC50: > 100 µM
NCI/ADR-RES; NCI/ADR-RES
  TGI: >1.00E−4 Molar
NCI/ADR-RES; [2]
  Mean Optical Densities: 0.982
  Percent Growth: 5%
NCI/ADR-RES; [3]
  Mean Optical Densities: 1.133
  Percent Growth: 20%
NCI/ADR-RES; [4]
  Mean Optical Densities: 1.389
  Percent Growth: 45%
NCI/ADR-RES; [5]
  Mean Optical Densities: 1.445
  Percent Growth: 50%
NCI/ADR-RES; [6]
  Mean Optical Densities: 1.518
  Percent Growth: 57%
MOLT-4
  TGI: >1.00E−4 Molar
MOLT-4; Homo sapiens
  GI50: 44.7 µM
  LC50 (concentration killing 50% of cells): > 100 µM
MOLT-4; Log10 Concentration −4.0 Molar
  Mean Optical Densities: 0.416
  Percent Growth: 47%
MOLT-4; Log10 Concentration −5.0 Molar
  Mean Optical Densities: 0.462
  Percent Growth: 55%
MOLT-4; Log10 Concentration −6.0 Molar
  Mean Optical Densities: 0.685
  Percent Growth: 90%
MOLT-4; Log10 Concentration −7.0 Molar
  Mean Optical Densities: 0.646
  Percent Growth: 84%
MOLT-4; Log10 Concentration −8.0 Molar
  Mean Optical Densities: 0.646
  Percent Growth: 84%
TK-10
  TGI: >1.00E−4 Molar
TK-10; Homo sapiens
  GI50: 4.15 µM
TK-10; [1]
  CC50: > 100 µM
TK-10; Log10 Concentration −4.0 Molar
  Mean Optical Densities: 1.117
  Percent Growth: 16%
TK-10; Log10 Concentration −5.0 Molar
  Mean Optical Densities: 1.163
  Percent Growth: 22%
TK-10; Log10 Concentration −6.0 Molar
  Mean Optical Densities: 1.674
  Percent Growth: 95%
TK-10; Log10 Concentration −7.0 Molar
  Mean Optical Densities: 1.684
  Percent Growth: 97%
TK-10; Log10 Concentration −8.0 Molar
  Mean Optical Densities: 1.707
  Percent Growth: 100%
MDA-MB-231/ATCC
  TGI: 4.74E−5 Molar
MDA-MB-231/ATCC; Homo sapiens
  GI50: 0.968 µM
MDA-MB-231/ATCC; [1]
  CC50: > 100 µM
MDA-MB-231/ATCC; Log10 Concentration −4.0 Molar
  Mean Optical Densities: 0.384
  Percent Growth: −7%
MDA-MB-231/ATCC; Log10 Concentration −5.0 Molar
  Mean Optical Densities: 0.457
  Percent Growth: 14%
MDA-MB-231/ATCC; Log10 Concentration −6.0 Molar
  Mean Optical Densities: 0.569
  Percent Growth: 50%
MDA-MB-231/ATCC; Log10 Concentration −7.0 Molar
  Mean Optical Densities: 0.630
  Percent Growth: 69%
MDA-MB-231/ATCC; Log10 Concentration −8.0 Molar
  Mean Optical Densities: 0.640
  Percent Growth: 72%
SK-MEL-2
  TGI: >1.00E−4 Molar
SK-MEL-2; Homo sapiens
  GI50: > 100 µM
SK-MEL-2; [1]
  CC50: > 100 µM
SK-MEL-2; Log10 Concentration −4.0 Molar
  Mean Optical Densities: 0.764
  Percent Growth: 54%
SK-MEL-2; Log10 Concentration −5.0 Molar
  Mean Optical Densities: 0.928
  Percent Growth: 78%
SK-MEL-2; Log10 Concentration −6.0 Molar
  Mean Optical Densities: 1.066
  Percent Growth: 98%
SK-MEL-2; Log10 Concentration −7.0 Molar
  Mean Optical Densities: 0.900
  Percent Growth: 74%
SK-MEL-2; Log10 Concentration −8.0 Molar
  Mean Optical Densities: 1.020
  Percent Growth: 92%
HIF-1β protein
  HIF-1β protein level: No change
pGL3 Control; 1,10-phenanthroline experiment (FIG. 5)
  luciferase expression from the pGL3-Control plasmid: Neither compound exerts significant effect
pGL3 Control; hypoxia experiment (FIG. 3)
  luciferase expression from the control plasmid (pGL3 Control): No statistically significant difference
KM12
  TGI: >1.00E−4 Molar
KM12; Homo sapiens
  GI50: 7.78 µM
KM12; [1]
  CC50: > 100 µM
KM12; Log10 Concentration −4.0 Molar
  Mean Optical Densities: 1.287
  Percent Growth: 50%
KM12; Log10 Concentration −5.0 Molar
  Mean Optical Densities: 1.205
  Percent Growth: 44%
KM12; Log10 Concentration −6.0 Molar
  Mean Optical Densities: 1.983
  Percent Growth: 98%
KM12; Log10 Concentration −7.0 Molar
  Mean Optical Densities: 1.876
  Percent Growth: 90%
KM12; Log10 Concentration −8.0 Molar
  Mean Optical Densities: 1.960
  Percent Growth: 96%
BT-549
  TGI: 1.32E−5 Molar
BT-549; Homo sapiens
  GI50: 1.07 µM
BT-549; [1]
  CC50: > 100 µM
BT-549; Log10 Concentration −4.0 Molar
  Mean Optical Densities: 0.474
  Percent Growth: −22%
BT-549; Log10 Concentration −5.0 Molar
  Mean Optical Densities: 0.620
  Percent Growth: 3%
BT-549; Log10 Concentration −6.0 Molar
  Mean Optical Densities: 0.813
  Percent Growth: 51%
BT-549; Log10 Concentration −7.0 Molar
  Mean Optical Densities: 0.868
  Percent Growth: 65%
BT-549; Log10 Concentration −8.0 Molar
  Mean Optical Densities: 0.838
  Percent Growth: 58%
